# Test results reported in patent US10723699B2 (Hyundai Pharm Co., Ltd., priority 2015, dated 2020).
# pEC50: −log10 of the molar value. Read-outs that look alike come from different tables or passages of the source.
# Biological target: T1, G protein-coupled receptor 119 (GPR-119) (Mesocricetus auratus, UniProt A0A1U8CD06)
# T1 construct: hamster-derived β-cells containing G protein-coupled receptor 119 (GPR-119), HIT-T15 cells; host or cells: HIT-T15 (hamster pancreatic β-cells)
# T1 sequence (A0A1U8CD06 1-334): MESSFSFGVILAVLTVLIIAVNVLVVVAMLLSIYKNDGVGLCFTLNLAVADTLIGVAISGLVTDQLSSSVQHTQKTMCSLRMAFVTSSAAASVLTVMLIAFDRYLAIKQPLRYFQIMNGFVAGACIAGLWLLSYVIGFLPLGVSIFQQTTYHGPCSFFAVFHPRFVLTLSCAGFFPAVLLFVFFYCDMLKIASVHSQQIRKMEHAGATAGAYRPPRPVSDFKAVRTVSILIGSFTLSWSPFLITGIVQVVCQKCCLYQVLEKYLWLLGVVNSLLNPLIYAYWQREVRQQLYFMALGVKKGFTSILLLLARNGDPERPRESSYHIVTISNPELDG
# Test: cAMP activity in HIT-T15 cells (cAMP dynamic kit, FRET)
# Format: cell-based, hamster
# In short: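 Hamster HIT-T15 cells (60,000/well) were treated next day with compound at six concentrations, 0.0032–10 μM, for 1 h at 37° C. Cells were then lysed and cAMP measured by competitive HTRF immunoassay (D2-cAMP, cryptate anti-cAMP). Activity was derived as the change in FRET signal relative to DMSO.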
# [1] = 1 hour at 37° C., six concentrations 0.0032 to 10 μM, read-out: EC50
Compound,pEC50 [1],"pEC50 (Table 2, read-out: EC50 value)","EC50 (EC50 (nM), 1 hour at 37° C., six concentrations 0.0032 to 10 μM)","pEC50 (EC50 value, Table 2)"
"CCN1CCN(C(=O)C2CC=C(c3ccc(OCC4CCN(c5nc(C(C)C)no5)CC4)c(F)c3)CC2)CC1 (stereo not drawn) [Example 346, (4-ethylpiperazin-1-yl)(4-(3-fluoro-4-((1-(3-isopropyl-1,2,4-oxadiazol-5-yl)piperidin-4-yl)methoxy)phenyl)cyclohex-3-enyl)methanone]",7.00,–,–,–
"CC(C)c1noc(N2CCC(COc3ccc(C4=CCC(C(=O)N5CCN(CCCO)CC5)CC4)cc3F)CC2)n1 (stereo not drawn) [Example 347, (4-(3-fluoro-4-((1-(3-isopropyl-1,2,4-oxadiazol-5-yl)piperidin-4-yl)methoxy)phenyl)cyclohex-3-enyl)(4-(3-hydroxypropyl)piperazin-1-yl)methanone]",7.26,–,–,–
"CC(C)c1noc(N2CCC(COc3ccc(C4=CCC(C(=O)N5CCN(C6CC6)CC5)CC4)cc3F)CC2)n1 (stereo not drawn) [Example 348, (4-cyclopropylpiperazin-1-yl)(4-(3-fluoro-4-((1-(3-isopropyl-1,2,4-oxadiazol-5-yl)piperidin-4-yl)methoxy)phenyl)cyclohex-3-enyl)methanone]",7.85,≥ 7.30,–,–
"CCc1cnc(N2CCC(COc3ccc(C4=CCC(C(=O)N5CCCC5)CC4)cn3)CC2)nc1 (stereo not drawn) [Example 349, (4-(6-((1-(5-ethylpyrimidin-2-yl)piperidin-4-yl)methoxy)pyridin-3-yl)cyclohex-3-enyl)(pyrrolidin-1-yl)methanone]",7.57,≥ 7.30,–,–
"CCc1cnc(N2CCC(COc3ccc(C4=CCC(C(=O)N5CCCCC5)CC4)cn3)CC2)nc1 (stereo not drawn) [Example 350, (4-(6-((1-(5-ethylpyrimidin-2-yl)piperidin-4-yl)methoxy)pyridin-3-yl)cyclohex-3-enyl)(piperidin-1-yl)methanone]",7.28,–,–,–
"CCc1cnc(N2CCC(COc3ccc(C4=CCC(C(=O)N5CCOCC5)CC4)cn3)CC2)nc1 (stereo not drawn) [Example 351, (4-(6-((1-(5-ethylpyrimidin-2-yl)piperidin-4-yl)methoxy)pyridin-3-yl)cyclohex-3-enyl)(morpholino)methanone]",7.39,≥ 7.30,–,–
"CCc1cnc(N2CCC(COc3ccc(C4=CCC(C(=O)N5CCSCC5)CC4)cn3)CC2)nc1 (stereo not drawn) [Example 352, (4-(6-((1-(5-ethylpyrimidin-2-yl)piperidin-4-yl)methoxy)pyridin-3-yl)cyclohex-3-enyl)(thiomorpholino)methanone]",7.20,–,–,–
"CCc1cnc(N2CCC(COc3ccc(C4=CCC(C(=O)N5CCC(O)CC5)CC4)cn3)CC2)nc1 (stereo not drawn) [Example 353, (4-(6-((1-(5-ethylpyrimidin-2-yl)piperidin-4-yl)methoxy)pyridin-3-yl)cyclohex-3-enyl)(4-hydroxypiperidin-1-yl)methanone]",7.24,–,–,–
"CCc1cnc(N2CCC(COc3ccc(C4=CCC(C(=O)N5CCC(CO)CC5)CC4)cn3)CC2)nc1 (stereo not drawn) [Example 354, (4-(6-((1-(5-ethylpyrimidin-2-yl)piperidin-4-yl)methoxy)pyridin-3-yl)cyclohex-3-enyl)(4-(hydroxymethyl)piperidin-1-yl)methanone]",7.66,≥ 7.30,–,–
"CC(C)c1noc(N2CCC(COc3ccc(C4=CCC(C(=O)N5CCN(C6CC6)CC5)CC4)cn3)CC2)n1 (stereo not drawn) [Example 355, (4-cyclopropylpiperazin-1-yl)(4-(6-((1-(3-isopropyl-1,2,4-oxadiazol-5-yl)piperidin-4-yl)methoxy)pyridin-3-yl)cyclohex-3-enyl)methanone]",7.34,≥ 7.30,–,–
"O=C(NCCO)C1CC=C(c2ccc(OCC3CCN(c4ncc(Br)cn4)CC3)cc2)CC1 (stereo not drawn) [Example 357, 4-(4-((1-(5-bromopyrimidin-2-yl)piperidin-4-yl)methoxy)phenyl)-N-(2-hydroxyethyl)cyclohex-3-enecarboxamide]",6.82,–,–,–
"O=C(NCCO)C1CC=C(c2ccc(OCC3CCN(c4ccccn4)CC3)cc2)CC1 (stereo not drawn) [Example 358, N-(2-hydroxyethyl)-4-(4-((1-(pyridin-2-yl)piperidin-4-yl)methoxy)phenyl)cyclohex-3-enecarboxamide]",6.72,–,–,–
"CCc1cnc(N2CCC(COc3ccc(C4=CCC(C(=O)N(C)CCO)CC4)cc3F)CC2)nc1 (stereo not drawn) [Example 359, 4-(4-((1-(5-ethylpyrimidin-2-yl)piperidin-4-yl)methoxy)-3-fluorophenyl)-N-(2-hydroxyethyl)-N-methylcyclohex-3-enecarboxamide]",7.85,≥ 7.30,–,–
"CCc1cnc(N2CCC(COc3ccc(C4=CCC(C(=O)N(CC)CCO)CC4)cc3F)CC2)nc1 (stereo not drawn) [Example 360, N-ethyl-4-(4-((1-(5-ethylpyrimidin-2-yl)piperidin-4-yl)methoxy)-3-fluorophenyl)-N-(2-hydroxyethyl)cyclohex-3-enecarboxamide]",8.06,≥ 7.30,–,–
"CC(C)c1noc(N2CCC(COc3ccc(C4=CCC(C(=O)N5CCC(C(N)=O)CC5)CC4)cc3F)CC2)n1 (stereo not drawn) [Example 361, 1-(4-(3-fluoro-4-((1-(3-isopropyl-1,2,4-oxadiazol-5-yl)piperidin-4-yl)methoxy)phenyl)cyclohex-3-enecarbonyl)piperidine-4-carboxamide]",7.32,≥ 7.30,–,–
"CC(C)c1noc(N2CCC(COc3ccc(C4=CCC(C(=O)N5CCC(N6CCCCC6)CC5)CC4)cc3F)CC2)n1 (stereo not drawn) [Example 362, 1,4′-bipiperidin-1′-yl(4-(3-fluoro-4-((1-(3-isopropyl-1,2,4-oxadiazol-5-yl)piperidin-4-yl)methoxy)phenyl)cyclohex-3-enyl)methanone]",6.74,–,–,–
"CC(C)c1noc(N2CCC(COc3ccc(C4=CCC(C(=O)NC5CC5)CC4)cc3F)CC2)n1 (stereo not drawn) [Example 363, N-cyclopropyl-4-(3-fluoro-4-((1-(3-isopropyl-1,2,4-oxadiazol-5-yl)piperidin-4-yl)methoxy)phenyl)cyclohex-3-enecarboxamide]",6.96,–,–,–
"CC(C)c1noc(N2CCC(COc3ccc(C4=CCC(C(=O)NC5CCC5)CC4)cc3F)CC2)n1 (stereo not drawn) [Example 364, N-cyclobutyl-4-(3-fluoro-4-((1-(3-isopropyl-1,2,4-oxadiazol-5-yl)piperidin-4-yl)methoxy)phenyl)cyclohex-3-enecarboxamide]",7.07,–,–,–
"CC(C)c1noc(N2CCC(COc3ccc(C4=CCC(C(=O)NC5CCCC5)CC4)cc3F)CC2)n1 (stereo not drawn) [Example 365, N-cyclopentyl-4-(3-fluoro-4-((1-(3-isopropyl-1,2,4-oxadiazol-5-yl)piperidin-4-yl)methoxy)phenyl)cyclohex-3-enecarboxamide]",7.42,≥ 7.30,–,–
"CC(C)c1noc(N2CCC(COc3ccc(C4=CCC(C(=O)NC5CCCCC5)CC4)cc3F)CC2)n1 (stereo not drawn) [Example 366, N-cyclohexyl-4-(3-fluoro-4-((1-(3-isopropyl-1,2,4-oxadiazol-5-yl)piperidin-4-yl)methoxy)phenyl)cyclohex-3-enecarboxamide]",7.41,≥ 7.30,–,–
"CCN1CCN(C(=O)C2CC=C(c3ccc(OCC4CCN(c5nc(C(C)C)no5)CC4)c(F)c3)CC2)CC1 (stereo not drawn) [Example 367, (4-ethylpiperazin-1-yl)(4-(3-fluoro-4-((1-(3-isopropyl-1,2,4-oxadiazol-5-yl)piperidin-4-yl)methoxy)phenyl)cyclohex-3-enyl)methanone]",7.59,≥ 7.30,–,–
"CC(C)c1noc(N2CCC(COc3ccc(C4=CCC(C(=O)N5CCN(CCCO)CC5)CC4)cc3F)CC2)n1 (stereo not drawn) [Example 368, (4-(3-fluoro-4-((1-(3-isopropyl-1,2,4-oxadiazol-5-yl)piperidin-4-yl)methoxy)phenyl)cyclohex-3-enyl)(4-(3-hydroxypropyl)piperazin-1-yl)methanone]",7.32,≥ 7.30,–,–
"CC(C)c1noc(N2CCC(COc3ccc(C4=CCC(C(=O)N5CCN(C6CC6)CC5)CC4)cc3F)CC2)n1 (stereo not drawn) [Example 369, (4-cyclopropylpiperazin-1-yl)(4-(3-fluoro-4-((1-(3-isopropyl-1,2,4-oxadiazol-5-yl)piperidin-4-yl)methoxy)phenyl)cyclohex-3-enyl)methanone]",8.05,–,–,–
"CC(C)c1noc(N2CCC(COc3ccc(C4=CCC(C(=O)N5CCC6(CC5)OCCO6)CC4)cc3F)CC2)n1 (stereo not drawn) [Example 370, (4-(3-fluoro-4-((1-(3-isopropyl-1,2,4-oxadiazol-5-yl)piperidin-4-yl)methoxy)phenyl)cyclohex-3-enyl)(1,4-dioxa-8-azaspiro[4.5]decan-8-yl)methanone]",–,–,15 nM,≥ 7.30
"CC(C)c1noc(N2CCC(COc3ccc(C4=CCC(C(=O)NCC(C)(C)CO)CC4)cc3F)CC2)n1 (stereo not drawn) [Example 371, 4-(3-fluoro-4-((1-(3-isopropyl-1,2,4-oxadiazol-5-yl)piperidin-4-yl)methoxy)phenyl)-N-(3-hydroxy-2,2-dimethylpropyl)cyclohex-3-enecarboxamide]",7.41,≥ 7.30,–,–
"CC(C)c1noc(N2CCC(COc3ccc(C4=CCC(C(=O)N(CCO)CCO)CC4)cc3F)CC2)n1 (stereo not drawn) [Example 372, 4-(3-fluoro-4-((1-(3-isopropyl-1,2,4-oxadiazol-5-yl)piperidin-4-yl)methoxy)phenyl)-N,N-bis(2-hydroxyethyl)cyclohex-3-enecarboxamide]",7.34,≥ 7.30,–,–
CCc1cnc(N2CCC(COc3ccc(C4=CCC(C(=O)N5CCCC5)CC4)cc3C(F)(F)F)CC2)nc1 (stereo not drawn) [Example 374],6.82,–,–,–
